We go through 17 molecules from ChEMBL document CHEMBL1156560, “4-(1,1-Dioxo-1,4-dihydro-1lambda6-benzo[1,4]thiazin-3-yl)-5-hydroxy-2H-pyridazin-3-ones as potent inhibitors of HCV NS5B polymerase” (Bioorg Med Chem Lett, 2008).

Data set [1] in a line: Cytotoxicity against human Huh7/C24 cells after 72 hrs. Format: cell-based, Huh-7.
Data set [2] deals with Hepatitis C virus. The data set is described as follows: Inhibition of HCV 1b BK delta21 NS5B delta21 polymerase. Further details: species or system Hepatitis C virus subtype 1b.
Data set [3] deals with Hepatitis C virus. Nature of the data set: Antiviral activity against HCV 1b BK delta21 in Huh7/C24 cells after 72 hrs by replicon assay. Format: functional, organism-based, Hepacivirus hominis. To be noted: genotype 1b BK, Huh7/C24, 72 h.
A short description of data set [4]: Metabolic stability in human liver microsomes assessed as half life. Format: ADME, Microsome.
Data set [5] can be described thus: Apparent permeability from apical to basolateral side in human Caco-2 cells at 10 uM. Format: ADME, cell-based.
Data set [6] is described as follows: Metabolic stability in monkey liver microsomes. Format: ADME, Macaca mulatta, Microsome. To be noted: rhesus monkey.
Data set [7] is described as follows: Oral bioavailability in cynomolgus monkey at 1 mg/kg. Format: ADME, organism-based, Macaca fascicularis. Particulars: in vivo.

Broadly, the CC50 is the concentration giving 50% cytotoxicity. The IC50 is the concentration needed to halve the response being measured. By EC50 is commonly meant the concentration needed to bring the measured effect to its halfway point. As usually defined, the half-life is the time in which the quantity being followed falls by half. Regarding `CS(=O)(=O)Nc1ccc2c(c1)S(=O)(=O)C=C(c1c(O)c(-c3cccs3)nn(Cc3ccccc3)c1=O)N2`, the CC50 at 72 h in data set [1] is more than 1000 nM. The IC50 in the data set with Hepatitis C virus [2] stood at 18 nM. In addition, in the data set on Hepatitis C virus [3], the EC50 stood at 36 nM. The half-life in data set [4] is more than 60 min.

Broadly, the Papp A→B is how fast a substance crosses the layer from the apical side. One may read the bioavailability as the share of a dose that reaches the circulation, judged against a reference dose that is usually intravenous. As to `Cc1ccc(-c2nn(Cc3ccccc3)c(=O)c(C3=CS(=O)(=O)c4ccccc4N3)c2O)s1`, the Papp A→B at 10 µM in data set [5] worked out at 0.3 ×10⁻⁶ cm/s. In the data set on Hepatitis C virus [2], this molecule yielded an IC50 of 12000 nM. In data set [6], this molecule came in with a half-life of 37 min. The molecule further had a bioavailability in data set [7] of 13%.

Regarding `Cc1ccc(-c2nn(Cc3ccccc3)c(=O)c(C3=Nc4ccccc4S(=O)(=O)N3)c2O)s1`, the Papp A→B at 10 µM in data set [5] was determined as 1.3 ×10⁻⁶ cm/s. The same molecule came in with a half-life in data set [6] of more than 60 min. The same molecule displayed a bioavailability in data set [7] of 33%.

Molecule `CS(=O)(=O)Nc1ccc2c(c1)S(=O)(=O)C=C(c1c(O)c(-c3cccs3)nn(CC3CC3)c1=O)N2` displayed a CC50 at 72 h in data set [1] of more than 1000 nM. The molecule also registered a half-maximal inhibitory concentration (IC50) in the data set on Hepatitis C virus [2] of 15 nM. Besides, in the data set with Hepatitis C virus [3], the EC50 was 3.5 nM. Besides, in data set [4], the half-life is more than 60 min.

`CC(C)CCn1nc(-c2cccs2)c(O)c(C2=CS(=O)(=O)c3cc(NS(C)(=O)=O)ccc3N2)c1=O`: the half-maximal cytotoxic concentration (CC50) at 72 h in data set [1] was more than 1000 nM. Moreover, the Papp A→B at 10 µM in data set [5] came to 0.012 ×10⁻⁶ cm/s. Moreover, in the data set on Hepatitis C virus [2], the IC50 was less than 10 nM. In addition, the results for the half-life in data set [6] and in data set [4] were 20 min and more than 60 min, respectively. Moreover, the EC50 in the data set with Hepatitis C virus [3] was found to be 1.1 nM. For the same molecule, in data set [7], the bioavailability was 4%.

`CC(C)(C)CCn1c(=O)c(C2=CS(=O)(=O)c3cc(NS(C)(=O)=O)ccc3N2)c(O)c2cccn21`: in data set [1], the CC50 at 72 h is more than 1000 nM. Moreover, the Papp A→B at 10 µM in data set [5] amounted to 0.3 ×10⁻⁶ cm/s. Moreover, the IC50 in the data set with Hepatitis C virus [2] is less than 10 nM. Besides, the half-life in data set [6] stood at 4.7 min; in data set [4] it was 30 min. This molecule also showed an EC50 in the data set with Hepatitis C virus [3] of 1.5 nM. For the same molecule, in data set [7], the bioavailability was determined as 1%.

In turn, `CC(C)CCn1c(=O)c(C2=Nc3ccc(NS(C)(=O)=O)cc3S(=O)(=O)N2)c(O)c2cccn21` yielded an IC50 in the data set on Hepatitis C virus [2] of less than 10 nM. This molecule also gave an EC50 in the data set with Hepatitis C virus [3] of 8.5 nM. The same molecule registered a bioavailability in data set [7] of 0%.

In turn, `Cc1ccc(-c2nn(Cc3ccccc3)c(=O)c(C3=CS(=O)(=O)c4cc(N(C)S(C)(=O)=O)ccc4N3)c2O)s1` yielded a concentration for half-maximal inhibition (IC50) in the data set on Hepatitis C virus [2] of 9000 nM. For the same molecule, the half-life in data set [4] was more than 60 min.

Turning to `CCC(C)(C)CCn1nc(-c2cccs2)c(O)c(C2=CS(=O)(=O)c3cc(NS(C)(=O)=O)ccc3N2)c1=O`, in data set [1], the 50% cytotoxic concentration (CC50) at 72 h is more than 1000 nM. In the data set on Hepatitis C virus [2], the IC50 is less than 10 nM. Further, in the data set with Hepatitis C virus [3], the EC50 was determined as 2.7 nM. Besides, in data set [4], the half-life is 30 min.

`Cc1ccc(-c2nn(Cc3ccccc3)c(=O)c(C3=CS(=O)(=O)c4cc(NS(C)(=O)=O)ccc4N3)c2O)s1` returned an IC50 in the data set on Hepatitis C virus [2] of 1600 nM. The half-life in data set [4] is more than 60 min.

`CS(=O)(=O)Nc1ccc2c(c1)S(=O)(=O)C=C(c1c(O)c(-c3cccs3)nn(CC3CCCC3)c1=O)N2` had a CC50 at 72 h in data set [1] of more than 1000 nM. Also, half-maximal inhibition with Hepatitis C virus [2] (IC50) required 39 nM. This molecule also yielded an EC50 with Hepatitis C virus [3] of 15 nM. Moreover, the half-life in data set [4] was found to be 43 min.

Regarding `CC(C)CCn1nc(-c2cccs2)c(O)c(C2=Nc3ccc(NS(C)(=O)=O)cc3S(=O)(=O)N2)c1=O`, the apparent permeability from apical to basolateral (Papp A→B) at 10 µM in data set [5] was 0.02 ×10⁻⁶ cm/s.

Molecule `CC(C)CCn1c(=O)c(C2=CS(=O)(=O)c3cc(NS(C)(=O)=O)ccc3N2)c(O)c2cccn21` came in with a cytotoxic concentration (CC50) at 72 h in data set [1] of more than 1000 nM. Moreover, the apical-to-basolateral permeability (Papp A→B) at 10 µM in data set [5] amounted to 0.027 ×10⁻⁶ cm/s. Further, half-maximal inhibition in the data set on Hepatitis C virus [2] (IC50) required 27 nM. In the data set on Hepatitis C virus [3], the 50% effective concentration (EC50) was found to be 13 nM. Further, the half-life in data set [4] is more than 60 min.

Take `CC(C)CCn1nc(-c2cccs2)c(O)c(C2=NS(=O)(=O)c3cc(N(C)S(C)(=O)=O)ccc3N2)c1=O`: in data set [5], the apical-to-basolateral permeability (Papp A→B) at 10 µM was found to be 0.2 ×10⁻⁶ cm/s. For the same molecule, the bioavailability in data set [7] came to 12%.

In data set [1], `CC(C)CCn1c(=O)c(C2=CS(=O)(=O)c3cc(N(C)S(C)(=O)=O)ccc3N2)c(O)c2cccn21` gave a half-maximal cytotoxic concentration (CC50) at 72 h of more than 33000 nM. Further, the Papp A→B at 10 µM in data set [5] worked out at 0.012 ×10⁻⁶ cm/s. This molecule registered an IC50 with Hepatitis C virus [2] of 440 nM. Besides, the half-life was 20 min in data set [6] and more than 60 min in data set [4]. Besides, the midpoint of the response in the data set on Hepatitis C virus [3], the EC50, lay at 940 nM. Further, in data set [7], the bioavailability amounted to 4%.

Molecule `CC(C)CCn1nc(-c2cccs2)c(O)c(C2=CS(=O)(=O)c3cc(N(C)S(C)(=O)=O)ccc3N2)c1=O` returned an IC50 in the data set with Hepatitis C virus [2] of 1600 nM.

Consider `CC(C)CCn1nc(-c2ccccc2)c(O)c(C2=CS(=O)(=O)c3cc(NS(C)(=O)=O)ccc3N2)c1=O`, for which the CC50 at 72 h in data set [1] is more than 33000 nM. In addition, in data set [5], the apparent permeability from apical to basolateral (Papp A→B) at 10 µM was 0.019 ×10⁻⁶ cm/s. In addition, the midpoint of inhibition in the data set with Hepatitis C virus [2], the IC50, lay at 250 nM. Further, the half-life was determined as 34 min in data set [6] and 36 min in data set [4]. In addition, the half-maximal effective concentration (EC50) in the data set with Hepatitis C virus [3] worked out at 190 nM. For the same molecule, the bioavailability in data set [7] was found to be 1%.
